A short description of assay [1]: Body weight measurements of the mice. The following applies: APP/PS1, HFD and Adipo−/− mice vs Veh-treated, 5 μg/g, i.p., alternating days for 45 days, n = 13/group. It counts as in vivo, mouse. Here is the method: We monitored and weighed the mice three times per week to examine the effect of Os-pep dosage regimen (5 µg/g, i.p., on alternating days for 45 days) on the animals’ body weights. At the completion of the treatment, we calculated the average change in the body weight of the mice. At the completion of the treatments and behavioral experiments, blood samples were collected by cardiac puncture of the right atrium. The serum was collected from whole blood by centrifugation (3000 rpm for 10 min) at room temperature and was stored at -20 °C until it was processed for biochemical analyses by SCL Labs (Seoul Medical Science Institute) to evaluate various metabolic parameters, e.g., glucose (Glu), free fatty acids (FFA), total cholesterol (TC), triglycerides (TG), high density lipoprotein (HDL) and low density lipoprotein (LDL) levels.

The subject of a further assay is AdipoR1/p-AMPK signaling. As to the kind of experiment: AdipoR1/p-AMPK signaling in mouse brain (immunoblot). It counts as in vivo. The following applies: 5 μg/g, i.p., alternating days for 45 days. Here is the method:
(§1) Os-pep was dissolved in double-deionized distilled water and then prepared in normal saline to obtain the final administered concentration. The AβO, APP/PS1, Adipo^−/− and WT mice were injected i.p. with Os-pep at a dosage of 5 μg/g on alternating days for 45 days. WT, Veh-injected transgenic-APP/PS1 and Adipo^−/− mice were injected with the same volume of double-deionized water and normal saline. The WT control and sham mice as well as the Veh-injected AβO, APP/PS1, Adipo^−/− and HFD mice received the same volume of double-deionized distilled water or normal saline.
(§2) The protein concentrations of the homogenates of mouse brain tissue and cell lysates in vitro were measured using a Bio-Rad protein assay kit (Bio-Rad Laboratories, Hercules, CA), and immunoblotting was performed as we previously described, using primary antibodies (detailed information described in the supplementary Table 1). Western blotting membranes have been cut prior to original western blot images and original western blot images are available at supplementary material.
(In general: In western blotting, separated proteins are transferred to a membrane and probed.)

For a further assay, the system named is p-IRS-1. The assay is described as follows: Neuronal insulin resistance (p-IRS-1) in mouse brain, immunoblot. It counts as in vivo. To be noted: AβO-treated, APP/PS1, Adipo−/− and HFD mice, 5 μg/g, i.p., alternating days for 45 days. Here is the method: as §1, §2
A separate cohort of animals was used to develop the HFD mouse model. Eight-week-old C57BL/6N male mice were bought from Samtako Bio (Republic of Korea). Mice were housed in the university animal housing facility under a 12 h/12 h light/dark cycle at 23°C and 60 ± 10% humidity, with food and water available ad libitum. […]

Assay [2] relates to p-IRS-1 and p-PI3K/Akt/GSK3β (Ser 9) pathways. As to the kind of experiment: Insulin resistance and downstream insulin signaling in APPswe/ind-overexpressing SH-SY5Y cells, immunoblot. To be noted: Os-pep 10 μM. The assay is classed as cell-based, human. Here is the method:
Human neuroblastoma SH-SY5Y cells were seeded (in 6-well culture plates for immunoblotting and in chamber slides for immunofluorescence) in DMEM (Dulbecco’s modified Eagle medium) containing 10% fetal bovine serum (FBS) and 1% antibiotics (penicillin-streptomycin) and incubated at 37 °C in humidified air containing 5% CO2. Once the cells reached 70–80% confluence, the cells were transfected using the pCAX vector containing the APPswe/ind gene using Lipofectamine 3000 (Life Technologies) according to the provider’s protocols. AdipoR1 siRNA (h) (SC-60123) and AMPK siRNA (h) (SC-45312) (Santa Cruz Biotechnology, Inc.) were used at a concentration of 10 μM per transfection and expressed for 72 h according to the manufacturer’s protocol (Santa Cruz Biotechnology, Inc.). A negative siRNA (Ambion, Thermo Fisher Scientific) was used as a control. Seventy-two hours after the transfections, the cells were exposed to Os-pep (10 μM) for 12 h and then subjected to immunoblotting and immunofluorescence analyses.
Human neuroblastoma SH-SY5Y cells were treated with 1 µM of insulin for 48 h to produce intrinsic insulin-resistant human neuroblastoma (SH-SY5YIR) cells. After 48 h, SH-SY5YIR cells were overexpressed with human APPswe/ind and subjected with AdipoR1 siRNA which further exposed to 10 nM insulin, Os-pep (10 µM) or compound C (10 µM) for 12 h, and then cell lysates were collected and proceeded accordingly for immunoblotting and ELISA.

Molecules are shown by their SMILES. Residues, ends and D or L forms follow the SMILES beside them.

For the compound `C[C@@H](O)[C@H](NC(=O)[C@@H]1CCCN1C(=O)CNC(=O)[C@H](CS)NC(=O)[C@@H]1CCCN1C(=O)CNC(=O)[C@H](CCC(N)=O)NC(=O)[C@@H](NC(=O)[C@@H](N)CS)[C@@H](C)O)C(=O)O` [Os-pep] (H-CTQGPCGPT-OH; N-terminus and C-terminus assumed), the “fold-increase in body weight” value in assay [1] was “smaller fold-increase in the body weight”. Also, the “AdipoR1/p-AMPK signaling, AβO-injected mice” value in the assay with AdipoR1/p-AMPK signaling (vs AβO-injected mice without Os-pep) was “significantly increased AdipoR1/p-AMPK signaling”. Besides, the “AdipoR1/p-AMPK signaling, APP/PS1 mice” value with AdipoR1/p-AMPK signaling (vs Veh-treated APP/PS1) was “remarkably increased AdipoR1/p-AMPK signaling”. Also, in the assay with AdipoR1/p-AMPK signaling (vs group without Os-pep), the “AdipoR1/AMPK levels, Adipo−/− mice” value was “significantly increased AdipoR1/AMPK levels”. Besides, in the assay on p-IRS-1, the “p-IRS-1 Ser636/312 levels” value is “significantly reducing the increase” and the “p-IRS-1 Tyr 632 levels” value is given as “significantly increasing”. Further, the “p-IRS-1 Tyr 632 and p-PI3K/Akt/GSK3β (Ser 9) in insulin-resistant cells” value in assay [2] (APPswe/ind SH-SY5YIR (insulin 1 μM), 12 h) is “significantly activated”. In addition, in assay [2] (APPswe/ind-overexpressing SH-SY5Y, AdipoR1 siRNA), the “p-IRS-1 Ser636/312 with AdipoR1 knockdown” value is on record as “did not downregulate”. Further, the “p-IRS-1 Tyr 632 and p-PI3K/Akt/GSK3β (Ser 9) with AMPK knockdown” value in assay [2] (APPswe/ind-transfected SH-SY5Y, AMPK siRNA) is “did not upregulate”.

The values are drawn from paper PMC8042910, “Adiponectin-mimetic novel nonapeptide rescues aberrant neuronal metabolic-associated memory deficits in Alzheimer’s disease” (Molecular Neurodegeneration, 2021).
